The subject of one assay is ob/ob mice. Kind of assay: Intraperitoneal glucose tolerance test in ob/ob mice. It is filed as in vivo, mouse. The note with it: 5 mg/kg oral, glucose 2 g/kg i.p. 1 hour later. How it is done:
Three-month-old mice were starved for 12 h and then orally administrated with vehicle (0.5% methylcellulose) or DDN (5 mg/kg). Cell lysates were prepared from liver and muscle tissues collected at 1 and 2 h after drug administration and analyzed by immunoprecipitation and immunoblotting. […] Three-month-old mice were starved for 12 h and then orally administrated with vehicle (0.5% methylcellulose) or DDN (5 mg/kg). Cell lysates were prepared from liver and muscle tissues collected at 1 and 2 h after drug administration and analyzed by immunoprecipitation and immunoblotting. (C) Hypoglycemic function of DDN in db/db mice. […] Blood glucose was monitored before and after drug administration at 1-hour intervals (*: P<0.05, **: P<0.01, n=5, Two-way ANOVA vs vehicle). […] Blood glucose was measured at 30-min intervals (*: P<0.05, **:P<0.01, n=5, Two-way ANOVA vs vehicle control).
(A) 4524-E7 provokes IR phosphorylation in various tissues of mice. […] Cell lysates from liver, muscle, and WAT were prepared at 3, 4, and 5 h after drug administration and analyzed by immunoblotting. (B) Basal and insulin-stimulated hepatic glucose production rates were measured by hyperinsulinemic-euglycemic clamp. […] Blood glucose was monitored at different time points as indicated (n=8, *: P<0.05, two-way ANOVA). […] Blood glucose was monitored at different time points as indicated (n=5, *: P<0.05, two-way ANOVA). […]

Another assay addresses IR (Mus musculus, UniProt P15208). The experiment in a line: IR phosphorylation and downstream signaling in mouse tissues. The format is in vivo. The conditions noted are these: for IR and ERK phosphorylations in liver and muscle: 5 mg/kg oral, 1 and 2 h. How it is done: (A) DDN reduces blood glucose in C57BL/6J mice. […] Blood glucose was monitored before and after dosing at various time points as indicated (*: P<0.05, **: P<0.01; ***: P<0.001, n=10-13, Two-way ANOVA vs vehicle). (B) DDN provokes IR phosphorylation and its downstream signaling in C57BL/6J mice. Three month-old C57BL/6J mice were starved for 12 h and then orally administrated with vehicle (0.5% methylcellulose), DDN (20 mg/kg) or 2NH2-NQ (20 mg/kg). Cell lysates were prepared from liver and muscle tissues collected at 3, 4, and 5 h after drug administration and analyzed by immunoprecipitation and immunoblotting. (C) DDN quickly activates IR phosphorylation and its downstream signaling. Three-month-old C57BL/6J mice were starved for 12 h and then injected with vehicle, 5 mg/kg DDN or 5 mg/kg 2NH2-NQ through vena cava. After 5 min, the liver was collected and analyzed by immunobloting using specific antibodies.
Three-month-old mice were starved for 12 h and then orally administrated with vehicle (0.5% methylcellulose) or DDN (5 mg/kg). Cell lysates were prepared from liver and muscle tissues collected at 1 and 2 h after drug administration and analyzed by immunoprecipitation and immunoblotting. […] Three-month-old mice were starved for 12 h and then orally administrated with vehicle (0.5% methylcellulose) or DDN (5 mg/kg). Cell lysates were prepared from liver and muscle tissues collected at 1 and 2 h after drug administration and analyzed by immunoprecipitation and immunoblotting. (C) Hypoglycemic function of DDN in db/db mice. The animals were starved for 12 h and then orally injected with vehicle (0.5% methylcellulose) or DDN (5 mg/kg). […] Blood glucose was monitored before and after drug administration at 1-hour intervals (*: P<0.05, **: P<0.01, n=5, Two-way ANOVA vs vehicle). (D) DDN improves the glucose tolerance in ob/ob mice. The animals were starved for 12 h and then orally dosed with vehicle (0.5% methylcellulose) or DDN (5 mg/kg). […] A bonus of glucose (2 gm/kg) was injected intraperitoneally 1 hour later. Blood glucose was measured at 30-min intervals (*: P<0.05, **:P<0.01, n=5, Two-way ANOVA vs vehicle control).
(A) 4524-E7 provokes IR phosphorylation in various tissues of mice. Three-month-old C57BL/6J mice were starved for 12 h and then dosed with vehicle (0.5% methylcellulose) or 4524-E7 (20 mg/kg). Cell lysates from liver, muscle, and WAT were prepared at 3, 4, and 5 h after drug administration and analyzed by immunoblotting. (B) Basal and insulin-stimulated hepatic glucose production rates were measured by hyperinsulinemic-euglycemic clamp. […] (C) Hypoglycemic effect of 4524-E7 in C57BL/6J mice. C57BL/6J mice were starved for 12 h and then orally administrated with vehicle (0.5% methylcellulose) or 4524-E7 (5 mg/kg). Blood glucose was monitored at different time points as indicated (n=8, *: P<0.05, two-way ANOVA). (D) Hypoglycemic effect in db/db mice. db/db mice were starved for 12 h and then orally injected with vehicle (0.5% methylcellulose) or 4524-E7 (5 mg/kg). Blood glucose was monitored at different time points as indicated (n=5, *: P<0.05, two-way ANOVA). (E) Glucose tolerance test in ob/ob mice. The mice were starved for 12 hours and then orally administrated with vehicle or 4524-E7 (5 mg/kg). A bonus of glucose (2 gm/kg) was injected intraperitoneally 1 hour later. Blood glucose was then measured at 30 min intervals (n=13, *: P<0.05; **: P<0.01, two-way ANOVA).
After a 12 h fasting, C57BL/6J mice were orally administrated with 20 mg/kg of compound in 0.5% methylcellulose, and sacrificed at 3 h, 4 h and 5 h following compound administration. Fat tissues were dissected quickly and frozen on dry ice. Fat lysates were prepared and analyzed by Western blotting.

Another assay has as its target T1, GST-IRTK (Homo sapiens, UniProt P06213).
T1 construct: GST-tagged IRTK (GST-IRTK, a.a. 1011-1382); purchased Invitrogen
Kind of assay: IR in vitro kinase assay (histone H2B phosphorylation). The note with it: different concentrations of compound. The format is biochemical. How it is done:
Parental CHO cells were used as a negative control (bottom panel). The fluorescence-labeled cells were analyzed on flow cytometry. (B) DDN binds to IRTK. UV-visible spectra were scanned from 200 to 800 nm for IRTK fragment in the presence of DDN or its analogue. When DDN binds to IRTK, it elicits the absorption alteration at 560 and 602 nm. (C) DDN protects IRTK from proteolysis. GST-IRTK was subjected to limited trypsin digestion in the presence of DDN (50 μM), ATP-γ-S (5 μM) or both. The reaction mixture was resolved by SDS-PAGE, followed by silver staining (D) DDN increases IRTK activity in vitro.
Parental CHO cells were used as a negative control (Bottom panel). The fluorescence-labeled cells were analyzed on flow cytometry. (B) 4524-E7 protects IRTK from proteolysis. GST-IRTK was subjected to limited trypsin or chymotrypsin digestion in the presence of 4524-E7 (50 μM), ATPyS (5 μM) or both at 37° C. for 5 min. The reaction mixture was resolved by SDS-PAGE, followed by silver staining Cleaved fragments were asterisked. (C) 4524-E7 increases IRTK activity in vitro. Recombinant GST-IRTK, GST-IGFRTK, and GST-EGFRTK were incubated with different concentrations of 4524-E7 or 10 μM 2—NH2-NQ and the kinase activity was examined by monitoring the phosphorylation of histone H2B. (E) In vitro kinase activity of various IRTK/IGF-1R kinase hybrids. The GFP-tagged kinases were expressed in HEK293, immunoprecipitated and incubated with different concentrations of 4524-E7 as indicated. […] Expressions of the kinases were also verified (lower panel).
Recombinant GST-IRTK was incubate with 50 mM tris-HCl (pH7.4), 10 mM MgCl2, and 50 μM ATP with different concentration of compound for 15 min at 25° C. Histone H2B (0.35 μg/ml) and [γ32P]ATP (0.25 μCi/ul) were added and the samples were further incubated for 10 min. The sample was separated on a SDS-polyacrylamide gel and autoradiographed.

Results on two compounds are retold here after patent publication US9040713B2, “Methods of managing blood sugar levels and compositions related thereto” (EMORY UNIVERSITY, priority 2010, dated 2015).

Molecules are shown by their SMILES.

Sequence of IR (P15208 28-1372): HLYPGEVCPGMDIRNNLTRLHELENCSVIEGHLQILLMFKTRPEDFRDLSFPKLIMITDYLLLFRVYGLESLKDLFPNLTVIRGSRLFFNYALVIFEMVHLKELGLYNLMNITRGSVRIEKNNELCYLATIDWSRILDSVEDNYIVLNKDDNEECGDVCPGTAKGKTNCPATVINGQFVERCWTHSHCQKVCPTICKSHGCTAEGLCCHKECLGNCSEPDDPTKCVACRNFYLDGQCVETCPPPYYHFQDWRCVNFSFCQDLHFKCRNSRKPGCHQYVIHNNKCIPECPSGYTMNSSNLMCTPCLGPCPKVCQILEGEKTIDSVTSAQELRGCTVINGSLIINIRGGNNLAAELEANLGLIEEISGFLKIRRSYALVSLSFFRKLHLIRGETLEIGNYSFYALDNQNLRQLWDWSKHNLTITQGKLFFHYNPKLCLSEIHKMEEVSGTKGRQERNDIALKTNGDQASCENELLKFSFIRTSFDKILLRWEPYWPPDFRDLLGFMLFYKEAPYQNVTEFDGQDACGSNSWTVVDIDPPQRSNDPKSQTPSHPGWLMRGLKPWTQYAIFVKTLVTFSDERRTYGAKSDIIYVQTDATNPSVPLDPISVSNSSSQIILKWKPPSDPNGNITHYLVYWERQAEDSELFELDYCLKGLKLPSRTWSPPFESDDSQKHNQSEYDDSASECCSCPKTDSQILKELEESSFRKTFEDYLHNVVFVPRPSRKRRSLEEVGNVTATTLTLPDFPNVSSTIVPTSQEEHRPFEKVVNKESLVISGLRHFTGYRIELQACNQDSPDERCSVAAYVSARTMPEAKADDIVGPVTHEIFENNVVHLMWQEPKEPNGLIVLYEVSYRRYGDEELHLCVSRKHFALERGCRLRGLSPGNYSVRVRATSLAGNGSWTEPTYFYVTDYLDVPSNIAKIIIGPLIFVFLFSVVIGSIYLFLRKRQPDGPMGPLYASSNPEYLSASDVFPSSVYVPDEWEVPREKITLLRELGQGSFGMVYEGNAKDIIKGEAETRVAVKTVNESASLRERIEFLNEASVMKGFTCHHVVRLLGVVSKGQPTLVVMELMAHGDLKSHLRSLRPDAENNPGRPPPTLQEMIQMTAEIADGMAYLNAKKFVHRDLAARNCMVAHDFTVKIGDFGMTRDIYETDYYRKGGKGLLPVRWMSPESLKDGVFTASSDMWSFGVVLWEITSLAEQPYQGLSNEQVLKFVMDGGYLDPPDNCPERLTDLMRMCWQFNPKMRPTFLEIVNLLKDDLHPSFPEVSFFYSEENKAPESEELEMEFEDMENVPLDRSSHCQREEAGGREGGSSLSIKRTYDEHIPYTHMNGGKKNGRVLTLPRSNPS
T1 sequence (P06213 1011-1382): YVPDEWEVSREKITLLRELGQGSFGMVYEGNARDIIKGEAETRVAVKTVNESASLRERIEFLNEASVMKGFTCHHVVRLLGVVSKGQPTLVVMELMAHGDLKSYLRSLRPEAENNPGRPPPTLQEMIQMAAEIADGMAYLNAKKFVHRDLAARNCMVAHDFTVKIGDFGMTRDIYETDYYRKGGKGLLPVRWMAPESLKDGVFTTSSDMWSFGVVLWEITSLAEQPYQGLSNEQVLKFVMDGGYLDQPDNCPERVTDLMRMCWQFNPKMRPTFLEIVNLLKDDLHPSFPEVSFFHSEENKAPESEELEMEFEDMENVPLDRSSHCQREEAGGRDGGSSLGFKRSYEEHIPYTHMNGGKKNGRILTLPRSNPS

As to `O=C1c2ccccc2C(=O)C2SC(Nc3ccc(Cl)cc3)=NC12` (centres unmarked) [4524-E7, 2-((4-chlorophenyl)amino)naphtho[2,3-d]thiazole-4,9(3aH,9aH)-dione], the glucose tolerance result with ob/ob mice is reported as “significant improvement of glucose tolerance”. The “IR tyrosine phosphorylation in the liver, muscle and WAT” value on IR (C57BL/6J mice, 20 mg/kg oral, 3 h after administration) is reported as “all elevated”. In addition, the “IRTK kinase activity (histone H2B phosphorylation)” value at GST-IRTK is “greatly enhanced”.
As for `CC(=O)Oc1ccc(OC(C)=O)c2c1C(=O)C(Cl)=C(Cl)C2=O` [DDN, 5,8-diacetyloxy-2,3-dichloro-1,4-naphthoquinone], the glucose tolerance entry in the assay on ob/ob mice is listed as “significant improvement in glucose tolerance”. The “IR, Akt and ERK activation in liver” value at IR (C57BL/6J mice, 5 mg/kg through vena cava, after 5 min) is recorded as “quickly activated IR”. Further, the “IR and IRS-1 tyrosine phosphorylation in liver and muscle” value on IR (C57BL/6J mice, 20 mg/kg oral) is reported as “confirmed IRS-1 tyrosine phosphorylation in both tissues”. For the same compound, the “time until demonstrable IR activation in liver and muscle” value on IR (C57BL/6J mice, 20 mg/kg oral gavage) is 3 to 4 h. The “IR and ERK phosphorylations in liver and muscle” value was “enhanced IR and ERK phosphorylations” at IR (db/db mice); “enhanced IR and ERK phosphorylations” at IR (ob/ob mice). Also, the “time until IR activation in liver and muscle” value at IR (injected into blood stream through vena cava) was determined as 5 min. Moreover, at GST-IRTK, the “IRTK kinase activity (histone H2B phosphorylation)” value is given as “activated the recombinant IRTK to phosphorylate histone H2B”.
